From ChEMBL document CHEMBL1201862, “PubChem BioAssay data set” (2004)
Activity calls are given as the source filed them.

Experiments:
[1] = target: T1, Endoribonuclease toxin MazF (Escherichia coli K-12, UniProt P0AE70); test: MazF toxin RNase activators, dose response, biochemical, fluorescence, single-stranded RNA substrate, uHTS hits (AID 588481); type: functional
T1 sequence (P0AE70 whole entry): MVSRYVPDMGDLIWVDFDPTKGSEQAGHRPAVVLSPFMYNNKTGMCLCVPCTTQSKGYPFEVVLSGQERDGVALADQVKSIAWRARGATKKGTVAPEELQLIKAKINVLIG

[2] = target: T1, Endoribonuclease toxin MazF; test: fluorescent RNA oligo signal without MazF, dose response, counter-screen for MazEF activator project, biochemical, fluorescence, single-stranded RNase substrate (AID 588502); type: functional
HeLa = test: HeLa cell cytotoxicity, dose response, cytotoxicity control for MITF activator project, CellTiter-Glo luminescence, cherry-pick samples (AID 540259); type: functional, cell-based; conditions: Homo sapiens
Prothrombin = Prothrombin (Bos taurus, UniProt P00735); test: thrombin inhibition, dose response, biochemical, fluorescence polarization, uHTS hits (AID 602369); type: functional
CHO = test: cytotoxicity in TLR9-MyD88 CHO cells, dose response, cytotoxicity control for TLR9-MyD88 binding inhibitor project, cell-based, luminescence (AID 588339); type: functional, hamster; conditions: Cricetulus griseus;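 further: CHO cells stably coexpressing TLR9 and MyD88 fusions from primary screen; compound exposure lasted 48 hours before viability readout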
[3] = target: 72 kDa type IV collagenase (Homo sapiens, UniProt P08253); test: Dose Response validation of uHTS RPN11 inhibitor hits using a MMP-2 Fluorescence assay.; type: functional
Beta Lactamase = Beta Lactamase (Pseudomonas aeruginosa, UniProt Q932Y6); test: beta-lactamase reporter inhibitor potency, dose response, artefact control for TLR9-MyD88 binding inhibitor project, BLA reporter cells, FRET fluorescence (AID 588341); type: cell-based;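 further: cell based assay in CHO-K1 cells stably expressing beta-lactamase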
[4] = target: 26S proteasome non-ATPase regulatory subunit 14 (Homo sapiens, UniProt O00487); test: inhibition of proteasome subunit RPN11 – biochemical, fluorescence polarization, uHTS hits, confirmation (AID 602368); type: functional
[5] = target: T2, Carboxy-terminal domain RNA polymerase II polypeptide A small phosphatase 1 (Homo sapiens, UniProt Q9GZU7); test: inhibitors of CTDSP1, concentration-response testing, biochemical assay, absorbance-based, actives from ultra-high-throughput screening (AID 540297); type: functional
T2 sequence (Q9GZU7 whole entry): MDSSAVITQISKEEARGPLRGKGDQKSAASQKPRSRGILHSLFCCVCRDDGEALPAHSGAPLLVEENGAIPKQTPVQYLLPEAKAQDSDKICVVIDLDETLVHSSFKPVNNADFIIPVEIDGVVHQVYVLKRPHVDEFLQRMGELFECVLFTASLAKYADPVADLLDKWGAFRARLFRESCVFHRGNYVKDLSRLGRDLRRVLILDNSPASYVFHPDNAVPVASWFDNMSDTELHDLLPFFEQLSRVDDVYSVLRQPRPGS

[6] = target: T3, Ubiquitin-conjugating enzyme E2 N (Homo sapiens, UniProt P61088); type: functional
T3 sequence (P61088 whole entry): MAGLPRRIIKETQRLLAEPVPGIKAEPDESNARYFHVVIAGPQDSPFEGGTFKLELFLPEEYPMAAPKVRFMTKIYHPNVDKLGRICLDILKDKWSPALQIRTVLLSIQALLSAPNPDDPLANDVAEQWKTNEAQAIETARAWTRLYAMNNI

[7] = control 3'UTR Renilla luciferase suppression, dose response, counter-screen for Shn3 inhibitor project, cell-based, Clone20-Shn3RL, cherry-picked (AID 624133); type: functional
[8] = Shn3 3'UTR reporter inhibitors, dose response, cell-based, Clone20 osteoblasts, firefly luciferase, cherry-picked (AID 624132); type: functional;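 further: firefly luciferase luminescence from reporter carrying the Shn3 3'UTR in osteoblasts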
[9] = Luminescence Cell-Based Dose Retest to Confirm Inhibitors of Cancer Stem Cells. [Related pubchem assays (depositor defined):AID2717, AID2721]; type: functional; conditions: Homo sapiens
[10] = HepG2 cell cytotoxicity, dose response, cytotoxicity control for Shn3 inhibitor project, CellTiter-Glo, cherry-picked (AID 624134); type: functional, cell-based
Protein RecA = target: T4, Protein RecA (Mycobacterium tuberculosis, UniProt P9WHJ3); test: Fluorescence Cell-Free Homogeneous Dose Retest to Identify Inhibitors of RecA-Intein Splicing Activity. [Related pubchem assays (depositor defined):AID2097, AID2223, AID489010, AID492950]; type: functional
T4 sequence (P9WHJ3 whole entry): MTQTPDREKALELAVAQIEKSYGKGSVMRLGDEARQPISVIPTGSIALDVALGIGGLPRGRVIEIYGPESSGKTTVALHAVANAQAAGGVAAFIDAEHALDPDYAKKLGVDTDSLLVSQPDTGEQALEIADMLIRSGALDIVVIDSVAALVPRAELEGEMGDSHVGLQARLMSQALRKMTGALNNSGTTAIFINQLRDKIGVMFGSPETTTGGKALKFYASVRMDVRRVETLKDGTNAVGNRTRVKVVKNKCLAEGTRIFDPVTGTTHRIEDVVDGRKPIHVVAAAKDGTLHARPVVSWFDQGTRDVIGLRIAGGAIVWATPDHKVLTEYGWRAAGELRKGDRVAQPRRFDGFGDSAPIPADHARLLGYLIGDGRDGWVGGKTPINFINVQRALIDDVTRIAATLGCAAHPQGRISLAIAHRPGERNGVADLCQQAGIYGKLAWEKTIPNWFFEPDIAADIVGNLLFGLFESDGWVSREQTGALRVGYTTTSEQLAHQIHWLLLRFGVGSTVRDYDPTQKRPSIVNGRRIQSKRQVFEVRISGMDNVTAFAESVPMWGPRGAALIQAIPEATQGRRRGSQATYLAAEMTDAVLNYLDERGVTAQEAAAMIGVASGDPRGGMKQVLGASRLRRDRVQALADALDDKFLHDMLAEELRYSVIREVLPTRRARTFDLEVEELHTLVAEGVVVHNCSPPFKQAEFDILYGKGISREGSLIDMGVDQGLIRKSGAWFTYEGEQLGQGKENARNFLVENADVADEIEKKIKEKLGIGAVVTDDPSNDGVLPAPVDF

[11] = target: T5, Microphthalmia-associated transcription factor (Homo sapiens, UniProt O75030); test: TRPM1 promoter luciferase signal decrease, dose response, MITF inhibitor project, cell-based, SK-MEL-5, cherry-picked, set 3 (AID 493073); type: functional
T5 sequence (O75030 whole entry): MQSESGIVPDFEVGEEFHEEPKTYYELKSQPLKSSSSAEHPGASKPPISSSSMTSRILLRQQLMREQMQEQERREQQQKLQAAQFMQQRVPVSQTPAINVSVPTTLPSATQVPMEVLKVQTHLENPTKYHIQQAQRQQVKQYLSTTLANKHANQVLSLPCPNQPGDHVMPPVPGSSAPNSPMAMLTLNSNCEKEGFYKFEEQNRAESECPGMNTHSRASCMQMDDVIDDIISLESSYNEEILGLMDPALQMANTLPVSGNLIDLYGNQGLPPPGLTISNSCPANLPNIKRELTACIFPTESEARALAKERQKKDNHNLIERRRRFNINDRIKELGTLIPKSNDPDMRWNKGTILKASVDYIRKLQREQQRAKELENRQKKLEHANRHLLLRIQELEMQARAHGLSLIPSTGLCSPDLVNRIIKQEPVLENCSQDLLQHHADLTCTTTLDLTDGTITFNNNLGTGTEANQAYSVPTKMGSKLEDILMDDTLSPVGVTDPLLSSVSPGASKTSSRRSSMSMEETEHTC

Genome polyprotein = Genome polyprotein (dengue virus type 2, UniProt P29990); test: Dengue-2 NS5 methyltransferase inhibitors, primary screen, biochemical, confirmation dose response (AID 588689); type: functional
[12] = target: T6, Replicative DNA helicase DnaB (Mycobacterium tuberculosis, UniProt P9WMR3); test: DnaB intein splicing inhibitors, dose response, biochemical, cell-free fluorescence (AID 449749); type: functional
T6 sequence (P9WMR3 whole entry): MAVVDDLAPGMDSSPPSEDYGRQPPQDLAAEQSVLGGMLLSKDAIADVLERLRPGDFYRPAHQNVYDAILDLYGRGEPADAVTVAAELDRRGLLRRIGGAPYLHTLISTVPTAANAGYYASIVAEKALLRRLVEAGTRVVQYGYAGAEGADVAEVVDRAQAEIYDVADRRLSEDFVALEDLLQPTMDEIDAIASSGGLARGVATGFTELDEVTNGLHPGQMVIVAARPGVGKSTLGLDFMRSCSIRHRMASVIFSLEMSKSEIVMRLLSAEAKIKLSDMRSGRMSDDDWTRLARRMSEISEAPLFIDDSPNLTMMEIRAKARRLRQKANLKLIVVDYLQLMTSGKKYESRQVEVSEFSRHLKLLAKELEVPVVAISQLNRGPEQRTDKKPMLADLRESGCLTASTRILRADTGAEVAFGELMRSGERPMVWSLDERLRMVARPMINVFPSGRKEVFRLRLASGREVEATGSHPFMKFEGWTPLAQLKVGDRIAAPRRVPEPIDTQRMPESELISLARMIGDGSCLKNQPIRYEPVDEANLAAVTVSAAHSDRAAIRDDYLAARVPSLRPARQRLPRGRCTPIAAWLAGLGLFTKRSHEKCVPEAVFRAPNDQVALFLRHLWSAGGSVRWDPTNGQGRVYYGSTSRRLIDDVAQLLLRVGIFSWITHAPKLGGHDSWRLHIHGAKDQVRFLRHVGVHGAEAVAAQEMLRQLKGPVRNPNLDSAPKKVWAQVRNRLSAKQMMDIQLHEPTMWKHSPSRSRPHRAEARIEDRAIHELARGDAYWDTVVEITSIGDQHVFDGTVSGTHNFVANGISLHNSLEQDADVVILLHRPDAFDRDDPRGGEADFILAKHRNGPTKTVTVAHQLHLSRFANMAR

[13] = target: T3, Ubiquitin-conjugating enzyme E2 N; type: functional; remark: listed apart in the source
Bcl-2-related protein A1 = target: T7, Bcl-2-related protein A1 (Mus musculus, UniProt Q07440); type: functional;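 further: confirmatory dose–response counterscreen on Bfl-1, used to check hits from a UBC13 polyubiquitin inhibitor campaign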
T7 sequence (Q07440 whole entry): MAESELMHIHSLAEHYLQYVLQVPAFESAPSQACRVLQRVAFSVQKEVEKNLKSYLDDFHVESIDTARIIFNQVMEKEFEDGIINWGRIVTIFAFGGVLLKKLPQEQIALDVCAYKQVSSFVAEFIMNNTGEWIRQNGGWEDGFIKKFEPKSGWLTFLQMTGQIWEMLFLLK

SN12K1 = test: cells; type: functional; conditions: Homo sapiens
P388 = test: cells; type: functional; conditions: Mus musculus
P388/ADR = test: cells; type: functional; conditions: Mus musculus

Sequence of 26S proteasome non-ATPase regulatory subunit 14 (O00487 whole entry, the tested form may be a part): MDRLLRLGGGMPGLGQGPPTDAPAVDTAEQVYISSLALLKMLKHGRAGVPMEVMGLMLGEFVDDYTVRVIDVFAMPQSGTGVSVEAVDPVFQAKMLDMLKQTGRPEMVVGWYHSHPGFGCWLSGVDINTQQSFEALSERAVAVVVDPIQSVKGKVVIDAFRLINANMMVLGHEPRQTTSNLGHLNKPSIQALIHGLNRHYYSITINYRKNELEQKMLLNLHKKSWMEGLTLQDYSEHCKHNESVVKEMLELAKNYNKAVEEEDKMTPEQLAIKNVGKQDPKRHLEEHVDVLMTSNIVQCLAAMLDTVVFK
Sequence of 72 kDa type IV collagenase (P08253 whole entry): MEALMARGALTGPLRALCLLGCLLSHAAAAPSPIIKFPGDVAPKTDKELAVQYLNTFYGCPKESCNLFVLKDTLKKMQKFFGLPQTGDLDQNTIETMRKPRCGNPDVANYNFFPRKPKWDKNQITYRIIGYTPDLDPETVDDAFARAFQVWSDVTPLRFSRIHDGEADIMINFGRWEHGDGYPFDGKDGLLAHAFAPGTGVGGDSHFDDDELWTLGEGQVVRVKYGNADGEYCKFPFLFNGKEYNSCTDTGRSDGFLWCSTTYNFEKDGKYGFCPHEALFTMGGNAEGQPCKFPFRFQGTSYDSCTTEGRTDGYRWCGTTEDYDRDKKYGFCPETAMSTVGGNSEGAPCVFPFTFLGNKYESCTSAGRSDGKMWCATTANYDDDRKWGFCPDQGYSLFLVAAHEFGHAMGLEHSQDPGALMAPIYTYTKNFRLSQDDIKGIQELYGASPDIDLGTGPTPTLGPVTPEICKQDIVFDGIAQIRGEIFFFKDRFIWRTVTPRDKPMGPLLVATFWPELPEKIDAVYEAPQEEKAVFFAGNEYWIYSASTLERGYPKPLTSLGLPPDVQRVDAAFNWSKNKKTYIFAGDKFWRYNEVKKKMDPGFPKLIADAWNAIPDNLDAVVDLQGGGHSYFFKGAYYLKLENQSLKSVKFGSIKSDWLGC
Sequence of Beta Lactamase (Q932Y6 whole entry): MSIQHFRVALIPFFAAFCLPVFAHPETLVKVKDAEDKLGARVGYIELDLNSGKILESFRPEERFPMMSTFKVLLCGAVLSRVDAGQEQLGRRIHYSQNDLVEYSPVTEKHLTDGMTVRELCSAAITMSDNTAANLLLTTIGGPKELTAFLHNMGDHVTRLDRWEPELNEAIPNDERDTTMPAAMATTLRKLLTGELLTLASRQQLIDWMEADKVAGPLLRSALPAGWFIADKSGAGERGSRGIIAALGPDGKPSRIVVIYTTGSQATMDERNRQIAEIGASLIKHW
Sequence of Genome polyprotein (P29990 2492-3391 limits assumed): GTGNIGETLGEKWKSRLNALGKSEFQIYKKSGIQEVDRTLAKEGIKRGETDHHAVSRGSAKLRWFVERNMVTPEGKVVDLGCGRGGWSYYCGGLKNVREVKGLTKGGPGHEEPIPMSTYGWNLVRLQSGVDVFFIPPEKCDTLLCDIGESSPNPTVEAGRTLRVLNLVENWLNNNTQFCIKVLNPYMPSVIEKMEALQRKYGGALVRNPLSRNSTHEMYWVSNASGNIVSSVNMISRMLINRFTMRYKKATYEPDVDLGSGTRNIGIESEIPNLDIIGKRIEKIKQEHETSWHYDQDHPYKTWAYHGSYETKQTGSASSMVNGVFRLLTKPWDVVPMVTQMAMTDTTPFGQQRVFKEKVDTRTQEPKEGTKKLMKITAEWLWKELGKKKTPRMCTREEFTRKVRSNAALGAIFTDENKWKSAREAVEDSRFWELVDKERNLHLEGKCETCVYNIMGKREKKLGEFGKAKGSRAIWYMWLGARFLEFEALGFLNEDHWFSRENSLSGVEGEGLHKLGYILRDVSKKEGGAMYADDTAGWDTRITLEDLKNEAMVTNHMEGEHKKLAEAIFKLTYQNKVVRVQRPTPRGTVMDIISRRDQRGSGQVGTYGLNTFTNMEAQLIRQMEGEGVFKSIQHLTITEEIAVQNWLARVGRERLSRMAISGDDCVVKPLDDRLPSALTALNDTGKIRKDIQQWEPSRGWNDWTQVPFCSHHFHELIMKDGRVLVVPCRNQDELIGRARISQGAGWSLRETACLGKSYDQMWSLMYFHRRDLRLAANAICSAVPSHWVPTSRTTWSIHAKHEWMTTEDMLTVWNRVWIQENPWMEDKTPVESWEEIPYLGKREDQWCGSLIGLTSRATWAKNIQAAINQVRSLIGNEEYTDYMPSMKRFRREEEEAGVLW

Compound: Cc1[nH]c2ccccc2c1/C=C(\C#N)C(=O)NCc1ccccc1
- EC50 [1]: > 99 µM (inactive)
- EC50 [2]: > 99 µM (inactive)

Compound: Cc1ccc(C(=O)Nc2cccc(O)c2)cc1S(=O)(=O)N1CCCCCC1
- AC50 (HeLa): 321 µM (active)

Compound: CCCC(=O)Nc1nc(-c2ccccc2)ns1
- AC50 (HeLa): 64.7 µM (active)

Compound: C/C(=N\Nc1ccc([N+](=O)[O-])cc1)c1cc2ccccc2o1
- IC50 (Prothrombin): 1.62 µM (active)
- IC50 (CHO): 49.7 µM (inactive)
- IC50 [3]: > 100 µM (inactive)
- IC50 (Beta Lactamase): 3 µM (active)
- IC50 [4]: 1.82 µM (active)

Compound: O=C(CSc1nc2sc3c(c2c(=O)n1-c1ccccc1)CCCC3)N/N=C/c1ccccc1C(=O)O
- IC50 [5]: 9.27 µM (active)

Compound: O=c1nc2sc3ccccc3n2c(=O)n1-c1ccc(Cl)cc1
- AC50 (HeLa): 43.9 µM (active)

Compound: CS(=O)(=O)c1ncc(Cl)c(C(=O)Nc2ccc(N3CCOCC3)cc2)n1
- IC50 [6]: > 20 µM (inactive)
- AC50 [7]: 12.9 µM (active)
- AC50 [8]: 1.21 µM (active)
- AC50 [9]: 5.14 µM (active)
- AC50 [10]: 24 µM (active)
- EC50 (Protein RecA): 12.8 µM (active)
- AC50 [11]: 22.8 µM (active)
- IC50 (CHO): 4.79 µM (active)
- IC50 (Genome polyprotein): > 100 µM (active)
- IC50 (Beta Lactamase): 10.2 µM (inactive)
- AC50 [12]: 4.51 µM (active)
- IC50 [13]: 14.9 µM (active)
- IC50 (Bcl-2-related protein A1): > 20 µM (inactive)

Compound: O=C(Nc1ccc(-c2nc3cccnc3s2)cc1)c1ccc(Cl)nc1
- AC50 (HeLa): 201 µM (active)

Compound: COc1cc(/N=N\c2ccc(OC)c(S(=O)(=O)O)c2)c(C)cc1/N=N\c1ccc(/C=C/c2ccc(/N=[N+](/[O-])c3ccc(/C=C/c4ccc(/N=N/c5cc(C)c(/N=N\c6ccc(OC)c(S(=O)(=O)O)c6)cc5OC)cc4S(=O)(=O)O)c(S(=O)(=O)O)c3)cc2S(=O)(=O)O)c(S(=O)(=O)O)c1
- GI50 (SN12K1): > 100 µM (inactive)
- GI50 (P388): > 100 µM (inactive)

Compound: COc1ccccc1Cc1c(-c2cccc(Cl)c2)nc2ccc(Br)cn12
- IC50 (Prothrombin): 8.29 µM (active)
- IC50 [3]: > 100 µM (inactive)
- IC50 [4]: 14.2 µM (active)

Compound: COc1cc(C2c3cc4c(cc3[C@@H](Nc3ccc([N+](=O)[O-])cc3)C3COC(=O)[C@H]23)OCO4)cc(OC)c1O (some centres undefined)
- GI50 (P388/ADR): 0.324 µM (active)
- GI50 (SN12K1): 0.0427 µM (active)
- GI50 (P388): < 0.01 µM (active)

Compound: CC(C)=CCC(OC(=O)C=C(C)C)c1cc(O)c2c(c1O)C(=O)C=CC2=O (centres undefined)
- GI50 (P388/ADR): 0.023 µM (active)
- GI50 (SN12K1): 1.2 µM (inactive)
- GI50 (P388): 0.0296 µM (active)

Compound: Cc1ccc(CNC(=O)c2nnn(CC(=O)Nc3cc(C)cc(C)c3)c2N)cc1
- IC50 (Prothrombin): 76.5 µM (active)
- IC50 [3]: > 100 µM (inactive)
- IC50 [4]: 35.4 µM (active)

Compound: O=C(NC(Cc1ccc(I)cc1)C(=O)O)c1ccc(Br)cc1 (centres undefined)
- GI50 (P388/ADR): 21.3 µM (inactive)
- GI50 (SN12K1): > 100 µM (inactive)
- GI50 (P388): 53.7 µM (inactive)

Compound: CCOc1ccccc1C(=O)Nc1cc(Cl)ccc1O
- EC50 [1]: 38 µM (inactive)
- EC50 [2]: > 99 µM (inactive)
